Measured values as given in patent US8188277B2, “Aromatic compounds for suppressing the generation of collagen” (Otsuka Pharmaceutical Co., Ltd., priority 2004, dated 2012).
pIC50: −log10 of the molar value. Counter-ions that a name gives are not always drawn. Like-named read-outs stand apart in the source and are kept apart here.

Tests used:
[1] = tested on: LI90 cells, a human stellate cell line; assay: Collagen synthesis inhibition (3H-proline incorporation) in TGF-β1-stimulated LI90 cells; assay type: cell-based; details: 10 pM h-TGF-β1, 16 hours with test compound, 3H-proline labelling 24 hours, concentration at which T/C = 0.5, read-out: Collagen synthesis inhibitory activity IC50
Method: The cultured cells were then washed with D-PBS(−) (DULBECCO's phosphate buffered saline), and subsequently further cultured for 3 days in MEM (Eagle's minimum essential medium) supplemented with 0.1% fetal bovine serum. The cultured cells were again washed with D-PBS(−), and cultured for 16 hours in MEM (0.1% fetal bovine serum with respect to a total MEM volume) which contained a test compound and 10 pM h-TGF-β1 (human transforming growth factor β1). Next, the cultured LI90 cells were washed with D-PBS(−), and cultured for 24 hours in MEM containing ^3H-proline (radioactive labelled compound) and 0.25 mM ascorbic acid. The produced collagen was labelled with RI (radioactive isotope). From this culture supernatant, an acid-soluble fraction was extracted. Radioactivity was measured for this fraction. The measured value was taken to be the collagen synthesis activity.
Radioactivity of the culture supernatant cultured with the test compound was compared with that of the culture supernatant cultured without the test compound to calculate a collagen synthesis inhibitory activity (T/C) and determine a concentration (μM) at which collagen synthesis was inhibited by 50% (IC50=a concentration of the test compound at which T/C corresponded to 0.5). T/C=(Radioactivity of culture supernatant cultured with the test compound)/(radioactivity of culture supernatant cultured without the test compound)

O=C(Nc1ccc(Oc2ccc(CCC(=O)N3CCN(Cc4ccc5c(c4)OCO5)CC3)cc2)nc1)c1ccc(C(F)(F)F)cc1 [Example No. 1039, N-(6-{4-[3-(4-piperonylpiperazin-1-yl)-3-oxopropyl]phenoxy}pyridin-3-yl)-4-trifluoromethylbenzamide]
pIC50 ([1]; Homo sapiens): 7.66

O=C(Nc1ccc(Oc2ccc(N3CCC(CC(=O)N4CCN(Cc5ccc6c(c5)OCO6)CC4)CC3)cc2)nc1)c1ccc(C(F)(F)F)cc1 [Example No. 319, N-[6-(4-{4-[2-(piperonyl-piperazin-1-yl)-2-oxoethyl]piperidin-1-yl}phenoxy)-pyridin-3-yl]-4-trifluoromethylbenzamide]
pIC50 [1]: 8.72

Cc1cc(N(C)CC(=O)N2CCN(Cc3ccc4c(c3)OCO4)CC2)ccc1Oc1ccc(NC(=O)c2ccc(C(F)(F)F)cc2)cn1 [Example No. 1503, N-[6-(4-{[2-(4-piperonylpiperazin-1-yl)-2-oxoethyl]methylamino}-2-methylphenoxy)pyridin-3-yl]-4-trifluoromethylbenzamide]
pIC50 ([1]; Homo sapiens): 8.11

O=C(Nc1ccc(Oc2ccc(C(O)CN3CCOCC3)cc2)c(F)c1)c1ccc(Cl)c(Cl)c1 (stereo not shown) [compound 2715, 3,4-dichloro-N-{3-fluoro-4-[4-(1-hydroxy-2-morpholine-4-ylethyl)phenoxy]phenyl}benzamide]
melting point: 169 to 170 °C

CCN(CC(=O)N1CCN(Cc2ccc3c(c2)OCO3)CC1)c1ccc(Oc2ccc(NS(=O)(=O)c3ccc(Cl)c(Cl)c3)cn2)c(F)c1 [compound 2695, N-[6-(4-{[2-(4-piperonylpiperazin-1-yl)-2-oxoethyl]ethylamino}-2-fluorophenoxy)pyridin-3-yl]-3,4-dichlorobenzenesulfonamide]
melting point: 163 to 166 °C

CC(=O)N(CC(=O)N1CCN(Cc2ccc3c(c2)OCO3)CC1)c1ccc(Oc2ccc(NC(=O)c3ccc(Cl)c(Cl)c3)cn2)c(F)c1 [compound 730]
melting point: 233 to 235 °C

CCOC(=O)c1ccc(N2CCCN(c3ccc(Oc4ccc(NC(=O)c5ccc(C(F)(F)F)cc5)cn4)c(C)c3)C2=O)cc1 [compound 1188]
melting point: 160 to 161 °C

Br.CN(CC(=O)N1CCN(Cc2ccc3c(c2)OCO3)CC1)c1cc(F)c(Oc2ccc(C(=O)Nc3ccc(C(F)(F)F)cc3)cn2)cc1F [compound 1037, 6-(4-{[2-(4-Piperonylpiperazin-1-yl)-2-oxoethyl]methylamino}-2,5-difluorophenoxy)-N-(4-trifluoromethylphenyl)nicotinamide hydrobromide]
melting point: 224.5 to 226 °C

Cc1cc(N2CCCN(CC(=O)N3CCN(Cc4ccc5c(c4)OCO5)CC3)C2=O)ccc1Oc1ccc(NC(=O)c2ccc(C(F)(F)F)cc2)cn1 [compound 1186]
melting point: 182 to 183.5 °C

CCN(CC(=O)N1CCN(Cc2ccccc2)CC1)c1ccc(Oc2ccc(NC(=O)c3ccc(C(F)(F)F)cc3)cn2)c(C)c1 (as salt: maleate) [compound 1513]
melting point: 165 to 167 °C

O=C(Nc1ccc(Oc2ccc(C3=CCN(C(=O)CN4CCOCC4)CC3)cc2)cc1)c1ccc(Cl)c(Cl)c1 [compound 2565]
melting point: 195 to 197 °C

O=C(Nc1ccc(Oc2ccc(N3CCN(Cc4ccccc4)C3=O)cc2)nc1)c1ccc(Cl)c(Cl)c1 [compound 1182]
melting point: 186 to 187 °C

CN(CC(=O)N1CCN(Cc2ccc3c(c2)OCO3)CC1)c1ccc(Oc2ccc(NC(=O)c3ccc(C(F)(F)F)cc3)cn2)c(F)c1 [compound 776]
melting point: 220 to 221 °C

CC(=O)N(c1ccc(CCC(=O)N2CCN(Cc3ccc4c(c3)OCO4)CC2)cc1)c1ccc(NC(=O)c2ccc(Cl)c(Cl)c2)cn1 [compound 2099, N-[6-(Acetyl{4-[3-oxo-3-(4-piperonylpiperazin-1-yl)propyl]phenyl}amino)pyridin-3-yl]-3,4-dichlorobenzamide]
melting point: 150 to 165 °C

O=C(Nc1ccc(Oc2ccc(N3CCN(C(=O)CN4CCOCC4)CC3)cc2)cc1)c1ccc(Cl)c(Cl)c1 [compound 2559]
melting point: 177 to 178 °C

O=C(Nc1ccc(Cl)c(Cl)c1)c1ccc(Oc2ccc(CCC(=O)N3CCN(Cc4ccc5c(c4)OCO5)CC3)cc2)nc1 [Example No. 2100, 6-{4-[3-(4-piperonylpiperazin-1-yl)-3-oxopropyl]phenoxy}-N-(3,4-dichlorophenyl)nicotinamide]
pIC50 ([1]; Homo sapiens): 7.10

COc1ccc(CN2CCCN(c3ccc(Oc4ccc(NC(=O)c5ccc(Cl)c(Cl)c5)cn4)c(C)c3)C2=O)cc1OC [compound 1187]
melting point: 117 to 118 °C

CC(=O)N(CC(=O)N1CCN(Cc2ccc3c(c2)OCO3)CC1)c1ccc(Oc2ccc(NC(=O)c3ccc(Cl)c(Cl)c3)cn2)c(C)c1 [compound 725]
melting point: 216 to 217 °C

O=C(Nc1ccc(Oc2ccc(CCC(=O)N3CCN(c4cccnc4)CC3)cc2)c(F)c1)c1ccc(Cl)c(Cl)c1 [compound 467]
melting point: 183 to 185 °C

Cc1cc(N(C)CC(=O)N2CCN(Cc3ccoc3)CC2)ccc1Oc1ccc(NC(=O)c2ccc(C(F)(F)F)cc2)cn1 (as salt: hydrochloride) [compound 792]
melting point: 158.5 to 161 °C

CN(CC(=O)N1CCN(Cc2ccc3c(c2)OCO3)CC1)c1ccc(Oc2ccc(NC(=O)c3ccc(Cl)c(Cl)c3)cn2)c(F)c1 [compound 729]
melting point: 199 to 201 °C

Cc1cc(N2CCCN(Cc3ccc4c(c3)OCO4)C2=O)ccc1Oc1ccc(NC(=O)c2ccc(Cl)c(Cl)c2)cn1 [compound 1184]
melting point: 122 to 124 °C
